Tested on: transgenic T2 Arabidopsis plants
Test: Greenhouse spray of transgenic T2 Arabidopsis plants, herbicide injury 0 to 100% phytotox rating (Table A)
Assay type: in vivo
Settings: 14 days after treatment
Experimental: Additionally, transgenic T2 Arabidopsis plants are tested for improved tolerance to herbicides in greenhouse studies with the following herbicides: methyl 2-[2-chloro-5-[3-chloro-5-(trifluoromethyl)-2-pyridyl]-4-fluoro-phenoxy]-2-methoxy-acetate, and photosynthesis inhibitor diuron as negative control.
Table A: Transgenic T2 Arabidopsis plants, four weeks old, were sprayed in the greenhouse with the indicated amount of compound+1% (v/v) MSO. Herbicide injury was evaluated 14 days after treatment with a 0 to 100% phytotox rating scale where 0 is no injury relative to an unsprayed wild type check and 100% is completely dead.

COC(=O)C(OC)Oc1cc(-c2ncc(C(F)(F)F)cc2Cl)c(F)cc1Cl (stereo not drawn) [methyl 2-[2-chloro-5-[3-chloro-5-(trifluoromethyl)-2-pyridyl]-4-fluoro-phenoxy]-2-methoxy-acetate] was tested, and the “Herbicide injury, 0 to 100% phytotox rating” value (construct AMATU_PPO2 L397E_F420M, 100 g ai/ha + 1% (v/v) MSO) was 68%, the “Herbicide injury, 0 to 100% phytotox rating” value (construct AMATU_PPO2 L397E_F420M, 200 g ai/ha + 1% (v/v) MSO) was 79% and the “Herbicide injury, 0 to 100% phytotox rating” value (construct AMATU_PPO2 L397E_F420V, 50 g ai/ha + 1% (v/v) MSO) was 60%. For the same molecule, the “Herbicide injury, 0 to 100% phytotox rating” value (construct AMATU_PPO2 L397E_F420V, 100 g ai/ha + 1% (v/v) MSO) was 76%, the “Herbicide injury, 0 to 100% phytotox rating” value (construct AMATU_PPO2 L397E_F420V, 200 g ai/ha + 1% (v/v) MSO) was 85% and the “Herbicide injury, 0 to 100% phytotox rating” value (construct AMATU_PPO2 L397G_F420M, 50 g ai/ha + 1% (v/v) MSO) was 40%. The “Herbicide injury, 0 to 100% phytotox rating” value (construct AMATU_PPO2 L397G_F420M, 100 g ai/ha + 1% (v/v) MSO) was 56%, the “Herbicide injury, 0 to 100% phytotox rating” value (construct AMATU_PPO2 L397G_F420M, 200 g ai/ha + 1% (v/v) MSO) was 66% and the “Herbicide injury, 0 to 100% phytotox rating” value (construct AMATU_PPO2 L397Q_F420M, 50 g ai/ha + 1% (v/v) MSO) was 45%. For the same molecule, the “Herbicide injury, 0 to 100% phytotox rating” value (construct AMATU_PPO2 L397Q_F420M, 100 g ai/ha + 1% (v/v) MSO) was 61%, the “Herbicide injury, 0 to 100% phytotox rating” value (construct AMATU_PPO2 L397Q_F420M, 200 g ai/ha + 1% (v/v) MSO) was 73% and the “Herbicide injury, 0 to 100% phytotox rating” value (construct AMATU_PPO2 L397Q_F420V, 50 g ai/ha + 1% (v/v) MSO) was 69%. The “Herbicide injury, 0 to 100% phytotox rating” value (construct AMATU_PPO2 L397Q_F420V, 100 g ai/ha + 1% (v/v) MSO) was 66%, the “Herbicide injury, 0 to 100% phytotox rating” value (construct AMATU_PPO2 L397Q_F420V, 200 g ai/ha + 1% (v/v) MSO) was 83% and the “Herbicide injury, 0 to 100% phytotox rating” value (construct AMATU_PPO2 R128A_F420V, 50 g ai/ha + 1% (v/v) MSO) was 51%. For the same molecule, the “Herbicide injury, 0 to 100% phytotox rating” value (construct AMATU_PPO2 R128A_F420V, 100 g ai/ha + 1% (v/v) MSO) was 69%, the “Herbicide injury, 0 to 100% phytotox rating” value (construct AMATU_PPO2 R128A_F420V, 150 g ai/ha + 1% (v/v) MSO) was 73% and the “Herbicide injury, 0 to 100% phytotox rating” value (construct AMATU_PPO2 R128I_F420V, 50 g ai/ha + 1% (v/v) MSO) was 64%. For the same molecule, the “Herbicide injury, 0 to 100% phytotox rating” value (construct AMATU_PPO2 R128I_F420V, 100 g ai/ha + 1% (v/v) MSO) was 66%, the “Herbicide injury, 0 to 100% phytotox rating” value (construct AMATU_PPO2 R128I_F420V, 200 g ai/ha + 1% (v/v) MSO) was 80% and the “Herbicide injury, 0 to 100% phytotox rating” value (construct AMATU_PPO2 R128L_F420L, 50 g ai/ha + 1% (v/v) MSO) was 18%. For the same molecule, the “Herbicide injury, 0 to 100% phytotox rating” value (construct AMATU_PPO2 R128L_F420L, 100 g ai/ha + 1% (v/v) MSO) was 30%, the “Herbicide injury, 0 to 100% phytotox rating” value (construct AMATU_PPO2 R128L_F420L, 200 g ai/ha + 1% (v/v) MSO) was 56% and the “Herbicide injury, 0 to 100% phytotox rating” value (construct AMATU_PPO2 R128M_F420I, 50 g ai/ha + 1% (v/v) MSO) was 63%. For the same molecule, the “Herbicide injury, 0 to 100% phytotox rating” value (construct AMATU_PPO2 R128M_F420I, 100 g ai/ha + 1% (v/v) MSO) was 83%, the “Herbicide injury, 0 to 100% phytotox rating” value (construct AMATU_PPO2 R128M_F420I, 200 g ai/ha + 1% (v/v) MSO) was 91% and the “Herbicide injury, 0 to 100% phytotox rating” value (construct AMATU_PPO2 R128M_F420L, 50 g ai/ha + 1% (v/v) MSO) was 30%. The “Herbicide injury, 0 to 100% phytotox rating” value (construct AMATU_PPO2 R128M_F420L, 100 g ai/ha + 1% (v/v) MSO) was 60%, the “Herbicide injury, 0 to 100% phytotox rating” value (construct AMATU_PPO2 R128M_F420L, 200 g ai/ha + 1% (v/v) MSO) was 73% and the “Herbicide injury, 0 to 100% phytotox rating” value (construct AMATU_PPO2 R128M_F420M, 50 g ai/ha + 1% (v/v) MSO) was 100%. For the same molecule, the “Herbicide injury, 0 to 100% phytotox rating” value (construct AMATU_PPO2 R128M_F420M, 100 g ai/ha + 1% (v/v) MSO) was 85%, the “Herbicide injury, 0 to 100% phytotox rating” value (construct AMATU_PPO2 R128M_F420M, 200 g ai/ha + 1% (v/v) MSO) was 100% and the “Herbicide injury, 0 to 100% phytotox rating” value (construct AMATU_PPO2 R128M_F420V, 50 g ai/ha + 1% (v/v) MSO) was 64%. For the same molecule, the “Herbicide injury, 0 to 100% phytotox rating” value (construct AMATU_PPO2 R128M_F420V, 100 g ai/ha + 1% (v/v) MSO) was 75%, the “Herbicide injury, 0 to 100% phytotox rating” value (construct AMATU_PPO2 R128M_F420V, 200 g ai/ha + 1% (v/v) MSO) was 93% and the “Herbicide injury, 0 to 100% phytotox rating” value (construct Arabidopsis PPO1 S305L_Y426M, 50 g ai/ha + 1% (v/v) MSO) was 49%. For the same molecule, the “Herbicide injury, 0 to 100% phytotox rating” value (construct Arabidopsis PPO1 S305L_Y426M, 100 g ai/ha + 1% (v/v) MSO) was 100%, the “Herbicide injury, 0 to 100% phytotox rating” value (construct Arabidopsis PPO1 S305L_Y426M, 150 g ai/ha + 1% (v/v) MSO) was 100% and the “Herbicide injury, 0 to 100% phytotox rating” value (construct CHLSP_PPO_wt_tpFNR (CHLSP_PPO SEQ ID NO: 256), 50 g ai/ha + 1% (v/v) MSO) was 91%. The “Herbicide injury, 0 to 100% phytotox rating” value (construct CHLSP_PPO_wt_tpFNR (CHLSP_PPO SEQ ID NO: 256), 100 g ai/ha + 1% (v/v) MSO) was 97%, the “Herbicide injury, 0 to 100% phytotox rating” value (construct CHLSP_PPO_wt_tpFNR (CHLSP_PPO SEQ ID NO: 256), 200 g ai/ha + 1% (v/v) MSO) was 95% and the “Herbicide injury, 0 to 100% phytotox rating” value (construct OPITE_PPO_wt_tpFNR (OPITE_PPO SEQ ID NO: 249), 50 g ai/ha + 1% (v/v) MSO) was 100%. For the same molecule, the “Herbicide injury, 0 to 100% phytotox rating” value (construct OPITE_PPO_wt_tpFNR (OPITE_PPO SEQ ID NO: 249), 100 g ai/ha + 1% (v/v) MSO) was 100%, the “Herbicide injury, 0 to 100% phytotox rating” value (construct OPITE_PPO_wt_tpFNR (OPITE_PPO SEQ ID NO: 249), 200 g ai/ha + 1% (v/v) MSO) was 100% and the “Herbicide injury, 0 to 100% phytotox rating” value (construct hemG_tp_FNR (SEQ ID NO: 245), 50 g ai/ha + 1% (v/v) MSO) was 96%. For the same molecule, the “Herbicide injury, 0 to 100% phytotox rating” value (construct hemG_tp_FNR (SEQ ID NO: 245), 100 g ai/ha + 1% (v/v) MSO) was 100%, the “Herbicide injury, 0 to 100% phytotox rating” value (construct hemG_tp_FNR (SEQ ID NO: 245), 200 g ai/ha + 1% (v/v) MSO) was 99% and the “Herbicide injury, 0 to 100% phytotox rating” value (construct hemG_tp_long AMATU (SEQ ID NO: 246), 50 g ai/ha + 1% (v/v) MSO) was 68%. The “Herbicide injury, 0 to 100% phytotox rating” value (construct hemG_tp_long AMATU (SEQ ID NO: 246), 100 g ai/ha + 1% (v/v) MSO) was 75%, the “Herbicide injury, 0 to 100% phytotox rating” value (construct hemG_tp_long AMATU (SEQ ID NO: 246), 200 g ai/ha + 1% (v/v) MSO) was 79% and the “Herbicide injury, 0 to 100% phytotox rating” value (non transformed Arabidopsis, 50 g ai/ha + 1% (v/v) MSO) was 100%. The “Herbicide injury, 0 to 100% phytotox rating” value (non transformed Arabidopsis, 100 g ai/ha + 1% (v/v) MSO) was 100%, the “Herbicide injury, 0 to 100% phytotox rating” value (non transformed Arabidopsis, 150 g ai/ha + 1% (v/v) MSO) was 100% and the “Herbicide injury, 0 to 100% phytotox rating” value (non transformed Arabidopsis, 200 g ai/ha + 1% (v/v) MSO) was 100%.
